Numbered stars: 1 amine (or outer) side, 2 acyl side, 3 side chain; on linkers, the order of the positions; unused ones are H or OH. Square brackets hold non-standard residues; d marks the D form. Peptide text beside a SMILES is read from it. * marks the point of attachment. Sta = CC(C)C[C@H](N)[C@@H](O)CC(=O)O; AMC = Cc1cc(=O)oc2cc(N*)ccc12; Suc = O=C(CCC(=O)[*:2])[*:1]; Isovaleryl = CC(C)CC(=O)*; code Z = not defined here; Boc = CC(C)(C)OC(=O)*
B1: 19 kDa protease: Aspergillus niger 19 kDa protease (SEQ ID NO: 5) expressed intracellularly in A. oryzae, pooled gel permeation fractions (protein)
chain: MSPIPSYSRPGRGQHFQDAYGFAEACIAGDRMEIAGQTGMSPTSTEVPPTLEEEVAQAFNNINEVILYTLEKAKPDLRASVKSGWDRVVKIRTYHVQLPQTREKIIGLMVENVKKWCPDHQPTWTMLGIEALPFEGQNLEIEVDVFLG
modifications: Aspergillus niger

test system: 19 kDa protease; assay: Substrate specificity of the 19 kDa protease (fluorogenic MCA substrates); type: biochemical, Aspergillus niger; settings: 0.04 mM substrate solution, phosphate buffer pH 6.7, 37° C., 30 min, fluorescence 360/460 nm; Suc-LLVY-MCA = 100%
Procedure: (§1) Five synthetic substrates were purchased from Peptide Institute Co., Osaka. The substrates are Glt-AAF-MCA, Suc-LLVY-MCA, Boc-FSR-MCA, Suc(OMe)-AAPV-MCA, and Z-LLE-MCA. 25 μl of 0.04 mM substrates were preincubated at 37° C. for 5 min. 20 μl of protease sample were mixed with 25 μl of 400 mM phosphate buffer, pH 6.7, 5 μl of 2 M NaCl, and 25 μl of Milli Q water, and then preincubated at 37° C. for 5 min. The reactions were started by mixing the substrate solutions and the enzyme solutions. Increases of fluorescent strength were measured by FL600 Microplate Fluorescence Reader with 360 nm excitation and 460 nm emission filters at 37° C. for 30 min.

Compared with “Boc-FSR-MCA (Boc-Phe-Ser-Arg-{AMC}) [synthetic substrate purchased from Peptide Institute Co., Osaka]”, “Glt-AAF-MCA (Glt-Ala-Ala-Phe-{AMC}) [synthetic substrate purchased from Peptide Institute Co., Osaka]” is higher in “Substrate specificity (relative activity on substrate)” value: 0.3% for the first, 1.6% for the second.

Compared with “Suc(OMe)-AAPV-MCA ({Suc(OMe)}-AAPV-{AMC}) [synthetic substrate purchased from Peptide Institute Co., Osaka]”, “Suc-LLVY-MCA (Suc-LLVY-{AMC}) [synthetic substrate purchased from Peptide Institute Co., Osaka]” is higher in “Substrate specificity (relative activity on substrate)” value: 0.2% for the first, 100.0% for the second.

For “Z-LLE-MCA ({code Z}-Leu-Leu-Glu-{AMC}; reading uncertain; also: printed as Z-LLE-MCA) [synthetic substrate purchased from Peptide Institute Co., Osaka]”, the “Substrate specificity (relative activity on substrate)” value was 0.1%.

same assay, conditions: five synthetic substrates compared, pH 6.7, 37° C.

With “Suc-LLVY-MCA (Suc-LLVY-{AMC}) [synthetic substrate purchased from Peptide Institute Co., Osaka]” the “substrate ranking (in words)” value was “best substrate”.

test system: 19 kDa protease; assay: Effects of inhibitors on the 19 kDa protease (Suc-LLVY-MCA hydrolysis); type: biochemical, Aspergillus niger; settings: substrate 0.04 mM Suc-LLVY-MCA, KPB pH 6.7, 37° C.; 10 μl inhibitor stock (10 mM AEBSF, ZnSO4, EDTA; leupeptin 4.5 mg/10 ml and pepstatin A 3 mg/10 ml in DMSO diluted 10 times)
Procedure: as §1
4-(2-aminoethyl)-benzenesulfonyl fluoride (AEBSF), leupeptin, pepstatin A, ZnSO4, and EDTA were purchased from Wako Chemical Co., Osaka. The inhibitors were 4.5 mg/10 ml leupeptin in DMSO diluted 10 times by Milli Q water, 3 mg/10 ml pepstatin A in DMSO diluted 10 times by Milli-Q water, 10 mM AEBSF, 10 mM ZnSO4, and 10 mM EDTA. The substrate was 0.04 mM Suc-LLVY-MCA. Enzyme solution contains 5 μl of pooled 19 kDa protease fraction, 10 μl of inhibitors, 25 μl of 400 mM KPB, pH 6.7, and 35 μl of Milli-Q water. The substrate solution and the enzyme solutions were preincubated separately at 37° C. for 5 min. The activities were measured as described above.

Going from `NCCc1ccc(S(=O)(=O)F)cc1` [AEBSF, 4-(2-aminoethyl)-benzenesulfonyl fluoride] to `O=S(=O)([O-])[O-].[Zn+2]` [ZnSO4], the “residual activity (%)” value falls from 100% to 99%.

Compared with `O=C(O)CN(CCN(CC(=O)O)CC(=O)O)CC(=O)O` [EDTA], `CC(C)CC(=O)N[C@H](C(=O)N[C@H](C(=O)N[C@@H](CC(C)C)[C@@H](O)CC(=O)N[C@@H](C)C(=O)N[C@@H](CC(C)C)[C@@H](O)CC(=O)O)C(C)C)C(C)C` [Pepstatin, pepstatin A] (Isovaleryl-VV[Sta]A[Sta]-OH) is lower in “residual activity (%)” value: 101% for the first, 91% for the second.

In the case of `CC(=O)N[C@@H](CC(C)C)C(=O)N[C@@H](CC(C)C)C(=O)N[C@H](C=O)CCCNC(=N)N` [Leupeptin, leupeptin], the “residual activity (%)” value is reported as 89%.

test system: not listed separately; assay: pH profile of the 19 kDa protease; type: biochemical, Aspergillus niger; settings: phosphate buffer pH 6, 7, 8 and diethanolamine buffer pH 8, 9, 10; 0.04 mM Suc-LLVY-MCA
Procedure: as §1
Phosphate buffer pH6, 7, 8, and Diethanolamine buffer pH 8, 9, 10 were used. The substrate solution was 0.04 mM Suc-LLVY-MCA. The enzyme solution contains 5 μl of 19 kDa protease, 25 μl of buffer, 5 μl of 2 M NaCl and 40 μl of Milli Q water. Assay was performed as described before. The 19 kDa protease is an alkaline protease with the pH optimum 8-9.

In the case of B1, the pH optimum is reported as 8-9.

From patent US8945879B2, “Methods for recombinant expression of a polypeptide comprising a carbohydrate binding module using a host cell having reduced expression of a protease” (priority 2007, dated 2015)
